US7776791B2, “N-heterocyclyl phenyl-substituted cyclic ketoenols” (Bayer CropScience AG, priority 2003, dated 2010)

What was measured:
Format in all cases: in vivo
[1] = tested on: larvae of the mustard beetle (Phaedon cochleariae); assay: Phaedon larvae test; conditions: 500 ppm active compound, leaf dip
Procedure: Solvent: 7 parts by weight of dimethylformamide Emulsifier: 2 parts by weight of alkylaryl polyglycol ether To produce a suitable preparation of active compound, 1 part by weight of active compound is mixed with the stated amounts of solvent and emulsifier, and the concentrate is diluted with emulsifier-containing water to the desired concentration. Cabbage leaves (Brassica oleracea) are treated by being dipped into the preparation of active compound of the desired concentration and are populated with larvae of the mustard beetle (Phaedon cochleariae) while the leaves are still moist.

[2] = tested on: caterpillars of the army worm (Spodoptera frugiperda); assay: Spodoptera frugiperda test; conditions: 100 ppm active compound, leaf dip
Procedure: Solvent: 7 parts by weight of dimethylformamide
Emulsifier: 2 parts by weight of alkylaryl polyglycol ether
To produce a suitable preparation of active compound, 1 part by weight of active compound is mixed with the stated amounts of solvent and emulsifier, and the concentrate is diluted with emulsifier-containing water to the desired concentration.
Cabbage leaves (Brassica oleracea) are treated by being dipped into the preparation of active compound of the desired concentration and are populated with caterpillars of the army worm (Spodoptera frugiperda) while the leaves are still moist.
After the desired period of time, the kill in % is determined. 100% means that all caterpillars have been killed; 0% means that none of the caterpillars have been killed.

[3] = tested on: monocotyledonous and dicotyledonous weed and crop plants; assay: Herbicidal post-emergence action (K); conditions: greenhouse, 320 g of a.i./ha, EC formulation
Procedure: K. Herbicidal Post-Emergence Action
Seeds of monocotyledonous and dicotyledonous weed and crop plants are placed into sandy loam in wood fibre pots, covered with soil and cultivated in a greenhouse under good growth conditions. 2-3 weeks after sowing, the test plants are treated at the one-leaf stage. The test compounds, formulated as wettable powders (WP) or emulsifiable concentrates (EC), are, in various dosages with a water application rate of 600 l/ha (converted), with 0.2% of wetting agent added, sprayed onto the green parts of the plants. After the test plants were kept in a greenhouse under optimum growth conditions for about 3 weeks, the effect of the preparations is rated visually in comparison to untreated controls (herbicidal effect in percent (%): 100% effect=the plants have died, 0% effect=like controlled plants).

Row | Compound | Kill rate in % after 7 d [1] [%] | Kill rate in % after 7 d [2] [%] | herbicidal effect in percent, Echinochloa ([3]; Echinochloa) [%] | herbicidal effect in percent, Setaria ([3]; Setaria) [%] | herbicidal effect in percent, Sorghum ([3]; Sorghum) [%] | herbicidal effect in percent, Sugar beet ([3]; Sugar beet) [%]
1 | Cc1ccc(-n2cc(Cl)cn2)cc1C1=C(O)CC(C)(C)CC1=O [Ex. I-7-a-1] | 100 | – | – | – | – | –
2 | Cc1ccc(-n2cc(Cl)cn2)cc1C1=C(O)C2(CCCCC2)CC1=O [Ex. I-6-a-1] | 90 | – | – | – | – | –
3 | COC1CCC2(CC1)NC(=O)C(c1cc(-n3cc(Cl)cn3)ccc1C)=C2O (stereo not shown) [Ex. I-1-a-1] | – | 85 | 100 | 100 | 90 | 0
